According to patent publication US12053506B2, “Romo1-derived antimicrobial peptides and variants thereof” (priority 2019, dated 2024):
No end group written: not given here.

Key:
[1] = tested on: methicillin-resistant Staphylococcus aureus (ATCC 33591); conditions: for MBC value (μg/ml) against methicillin-resistant Staphylococcus aureus: ATCC 33591, 4 h; for MBC MRSA: Tables 11-15, no unit printed
Experimental: (§1) First, each of Pseudomonas aeruginosa (ATCC 27853) and Staphylococcus aureus (ATCC 29213) was cultured in 3% (w/v) TSB (Tryptic Soy Broth) liquid medium at 37° C. and 200 rpm for 4 hours, and then further cultured under the same conditions for 3 hours to a concentration of 5×10^6 CFU/ml. Strain solutions were prepared by diluting each of the further cultured strains with SP (sodium phosphate; 10 mM sodium phosphate, 1% TSB) buffer to a final concentration of 2×10^5 CFU/ml.
(§2) Then, each peptide at varying concentrations (0 μg/ml to 300 μg/ml) was dispensed into each well of a 96-well microplate, and 100 μl (1×10^5 CFU/ml) of each of the prepared strain solutions was added thereto, mixed therewith, and allowed to react with the peptide in an incubator at 37° C. for 1 hour.
(§3) In addition, 30 g/L of TS (tryptic soy) and 15 g/L of agar were dissolved in distilled water and sterilized, and then 25 ml of the solution was poured onto a 100 mm round plate and solidified at room temperature for one day or more, thereby preparing a TS agar plate. 10 μl of each reaction solution of the peptide and the strain was plated on the TS agar plate at a constant size, and incubated in an incubator at 37° C. for 18 hours, and then colony formation on the plate was checked.
(§4) Specifically, each type of bacteria was cultured in 3% (w/v) TSB (Tryptic Soy Broth) liquid medium at 37° C. and 200 rpm for 4 hours, and then further cultured under the same conditions for 3 hours to a concentration of 5×10^6 CFU/ml. Strain solutions were prepared by diluting each of the […] of 2×10^5 CFU/ml.
as §2, with “Then, the KU-5878” for “Then, each”
(§5) In addition, 10 μl of each reaction solution of the peptide and the strain was plated on the TS agar plate at a constant size, and incubated in an incubator at 37° C. for 18 hours, and then colony formation on the plate was checked.

[2] = tested on: multidrug-resistant Pseudomonas aeruginosa; conditions: 4 h
Experimental: as §1, §2, §3, §4
as §2, with “Then, the KU-5878” for “Then, each”
as §5
Meanwhile, the multidrug-resistant Pseudomonas aeruginosa, multidrug-resistant Acinetobacter and multidrug-resistant Klebsiella in Table 2 below were bacteria isolated from patients at Korea University Anam Hospital. […] Then, these bacteria were used in the experiment.

[3] = tested on: Staphylococcus aureus (ATCC 29213); type: cell-based; conditions: for MBC value (μg/ml) against Staphylococcus aureus: ATCC 29213, 1 h; for MBC Staphylococcus aureus: Tables 11-15, no unit printed
From the text: (§6) Romo1 protein comprises two α-helices. The present inventors synthesized the α-helix 2 region having both hydrophilicity and hydrophobicity, and evaluated the antibacterial activity thereof using minimum bactericidal concentration (MBC) assay. The α-helix 2 region was named KU-5279 (the 52-79 amino acid region of Romo1 protein). Then, in order to identify peptides that are beneficial for human application and have excellent antibacterial activity, the present inventors synthesized several peptides comprising a sequence of contiguous amino acids starting at any amino acid selected from the 52-79 amino acid region of Romo1 protein, and comparatively evaluated the antibacterial activities of the peptides by minimum bactericidal concentration assay (See Table 1 below for information on each peptide). Evaluation of the antibacterial activity of each peptide by minimum bactericidal concentration assay was specifically performed as follows. First, each of Pseudomonas aeruginosa (ATCC 27853) and Staphylococcus aureus (ATCC 29213) was cultured in 3% (w/v) TSB (Tryptic Soy Broth) liquid medium at 37° C. and 200 rpm for 4 hours, and then further cultured under the same conditions for 3 hours to a concentration of 5×10^6 CFU/ml. Strain solutions were prepared by diluting each of the further cultured strains with SP (sodium phosphate; 10 mM sodium phosphate, 1% TSB) buffer to a final concentration of 2×10^5 CFU/ml. Then, each peptide at varying concentrations (0 μg/ml to 300 μg/ml) was dispensed into each well of a 96-well microplate, and 100 μl (1×10^5 CFU/ml) of each of the prepared strain solutions was added thereto, mixed therewith, and allowed to react with the peptide in an incubator at 37° C. for 1 hour. In addition, 30 g/L of TS (tryptic soy) and 15 g/L of agar were dissolved in distilled water and sterilized, and then 25 ml of the solution was poured onto a 100 mm round plate and solidified at room temperature for one day or more, thereby preparing a TS agar plate. 10 μl of each reaction solution of the peptide and the strain was plated on the TS agar plate at a constant size, and incubated in an incubator at 37° C. for 18 hours, and then colony formation on the plate was checked. The minimum bactericidal concentration was defined as the minimum concentration of the peptide at which no colony was formed, and the experimental results are shown in Table 1 below.

[4] = tested on: Pseudomonas aeruginosa (ATCC 27853); type: cell-based; conditions: for MBC value (μg/ml) against Pseudomonas aeruginosa: ATCC 27853, 1 h; for MBC Pseudomonas aeruginosa: Tables 11-15, no unit printed
From the text: as §6

[5] = tested on: CRPA; assay: MBC, evaluation of antibacterial activities of KU-5878 variants; type: cell-based; conditions: Tables 11-15, no unit printed
Experimental: Variants were prepared by deleting one amino acid from the amino acid sequence of KU-5878 (SEQ ID NO: 13), and the antibacterial activities thereof were evaluated.
Variants were prepared by deleting two or more amino acids from the amino acid sequence of KU-5878 (SEQ ID NO: 13), and the antibacterial activities thereof were evaluated.
One amino acid in the amino acid sequence of KU-5878 (SEQ ID NO: 13) was substituted, and the antibacterial activities of the peptides were evaluated.
Substitutions of Q62K, S63K and T66K were sequentially added to the amino acid sequence of KU-5878-T59K, and the antibacterial activities of the peptides were evaluated.
An amino acid repeat sequence was added to the C-terminus of KU-5878, and the antibacterial activities of the peptides were evaluated. According to Table 15 below, when the R (arginine) repeat sequence or K (lysine) sequence was added to the C-terminus of KU-5878, the antibacterial activity of the peptide increased.

Q: Which “MBC value (μg/ml) against methicillin-resistant Staphylococcus aureus” value [1] does the source give for ATMMQSGGTFGTFMAIGMGIR [KU-5878-K58A] here?
A: Its value is greater than 300 µg/mL.

Q: And the MBC MRSA [1]?
A: Its MBC MRSA is greater than 300 µg/mL.

Q: And the “MBC value (μg/ml) against multidrug-resistant Pseudomonas aeruginosa” value [2]?
A: Its value is greater than 300 µg/mL.

Q: What about the “MBC value (μg/ml) against Staphylococcus aureus” value [3] of the same sequence?
A: Its value is greater than 300 µg/mL.

Q: And the MBC Staphylococcus aureus [3]?
A: Its MBC Staphylococcus aureus is greater than 300 µg/mL.

Q: What about the “MBC value (μg/ml) against Pseudomonas aeruginosa” value [4] of the same sequence?
A: Its value is greater than 300 µg/mL.

Q: What about the MBC Pseudomonas aeruginosa [4] of the same sequence?
A: Its MBC Pseudomonas aeruginosa is greater than 300 µg/mL.

Q: What about the MBC CRPA [5] of the same sequence?
A: The MBC CRPA was greater than 300 µg/mL.

Q: What does the source list for KKMMKKGGTFGTFMAIGMGIR [KU-5878-K3]?
A: MBC value (μg/ml) against methicillin-resistant Staphylococcus aureus [1]: 5 µg/mL; MBC MRSA [1]: 5 µg/mL; MBC value (μg/ml) against multidrug-resistant Pseudomonas aeruginosa [2]: 4 µg/mL; MBC value (μg/ml) against Staphylococcus aureus [3]: 4 µg/mL; MBC Staphylococcus aureus [3]: 4 µg/mL; MBC value (μg/ml) against Pseudomonas aeruginosa [4]: 4 µg/mL; MBC Pseudomonas aeruginosa [4]: 4 µg/mL; MBC CRPA [5]: 4 µg/mL

Q: For KKMMKSGGTFGTFMAIGMGIR [KU-5878-K2], which “MBC value (μg/ml) against methicillin-resistant Staphylococcus aureus” value [1] is on record?
A: Its value is 8 µg/mL.

Q: And the MBC MRSA [1]?
A: The MBC MRSA was 8 µg/mL.

Q: And the “MBC value (μg/ml) against multidrug-resistant Pseudomonas aeruginosa” value [2]?
A: Its value is 8 µg/mL.

Q: And the “MBC value (μg/ml) against Staphylococcus aureus” value [3]?
A: Its value is 8 µg/mL.

Q: What about the MBC Staphylococcus aureus [3] of the same sequence?
A: The MBC Staphylococcus aureus was 8 µg/mL.

Q: And the “MBC value (μg/ml) against Pseudomonas aeruginosa” value [4]?
A: Its value is 8 µg/mL.

Q: What about the MBC Pseudomonas aeruginosa [4] of the same sequence?
A: The MBC Pseudomonas aeruginosa was 8 µg/mL.

Q: What about the MBC CRPA [5] of the same sequence?
A: The MBC CRPA was 6 µg/mL.

Q: Which results are given for KKMMQSGGTFGTFMAIGMGIR [KU-5878-T59K]?
A: MBC value (μg/ml) against methicillin-resistant Staphylococcus aureus [1]: 45 µg/mL; MBC MRSA [1]: 50 µg/mL; MBC value (μg/ml) against multidrug-resistant Pseudomonas aeruginosa [2]: 45 µg/mL; MBC value (μg/ml) against Staphylococcus aureus [3]: 40 µg/mL; MBC Staphylococcus aureus [3]: 40 µg/mL; MBC value (μg/ml) against Pseudomonas aeruginosa [4]: 50 µg/mL; MBC Pseudomonas aeruginosa [4]: 50 µg/mL; MBC CRPA [5]: 50 µg/mL

Q: How did the “MBC value (μg/ml) against methicillin-resistant Staphylococcus aureus” value [1] turn out when KRMMQSGGTFGTFMAIGMGIR [KU-5878-T59R] was run?
A: Its value is 30 µg/mL.

Q: And the MBC MRSA [1]?
A: Its MBC MRSA is 30 µg/mL.

Q: What about the “MBC value (μg/ml) against multidrug-resistant Pseudomonas aeruginosa” value [2] of the same sequence?
A: Its value is 35 µg/mL.

Q: And the “MBC value (μg/ml) against Staphylococcus aureus” value [3]?
A: The value was 25 µg/mL.

Q: What about the MBC Staphylococcus aureus [3] of the same sequence?
A: Its MBC Staphylococcus aureus is 25 µg/mL.

Q: What about the “MBC value (μg/ml) against Pseudomonas aeruginosa” value [4] of the same sequence?
A: Its value is 30 µg/mL.

Q: What about the MBC Pseudomonas aeruginosa [4] of the same sequence?
A: The MBC Pseudomonas aeruginosa was 30 µg/mL.

Q: And the MBC CRPA [5]?
A: Its MBC CRPA is 30 µg/mL.

Q: What does the source list for KTMMKSGGTFGTFMAIGMGIR [KU-5878-Q62K]?
A: MBC value (μg/ml) against methicillin-resistant Staphylococcus aureus [1]: 85 µg/mL; MBC MRSA [1]: 90 µg/mL; MBC value (μg/ml) against multidrug-resistant Pseudomonas aeruginosa [2]: 90 µg/mL; MBC value (μg/ml) against Staphylococcus aureus [3]: 80 µg/mL; MBC Staphylococcus aureus [3]: 80 µg/mL; MBC value (μg/ml) against Pseudomonas aeruginosa [4]: 90 µg/mL; MBC Pseudomonas aeruginosa [4]: 90 µg/mL; MBC CRPA [5]: 90 µg/mL

Q: For KTMMQKGGTFGTFMAIGMGIR [KU-5878-S63K], which “MBC value (μg/ml) against methicillin-resistant Staphylococcus aureus” value [1] is on record?
A: The value was 60 µg/mL.

Q: What about the MBC MRSA [1] of the same sequence?
A: Its MBC MRSA is 50 µg/mL.

Q: What about the “MBC value (μg/ml) against multidrug-resistant Pseudomonas aeruginosa” value [2] of the same sequence?
A: The value was 60 µg/mL.

Q: What about the “MBC value (μg/ml) against Staphylococcus aureus” value [3] of the same sequence?
A: Its value is 50 µg/mL.

Q: What about the MBC Staphylococcus aureus [3] of the same sequence?
A: The MBC Staphylococcus aureus was 50 µg/mL.

Q: And the “MBC value (μg/ml) against Pseudomonas aeruginosa” value [4]?
A: The value was 60 µg/mL.

Q: What about the MBC Pseudomonas aeruginosa [4] of the same sequence?
A: The MBC Pseudomonas aeruginosa was 60 µg/mL.

Q: And the MBC CRPA [5]?
A: Its MBC CRPA is 50 µg/mL.

Q: What does the source list for KTMMQSGGKFGTFMAIGMGIR [KU-5878-T66K]?
A: MBC value (μg/ml) against methicillin-resistant Staphylococcus aureus [1]: 70 µg/mL; MBC MRSA [1]: 80 µg/mL; MBC value (μg/ml) against multidrug-resistant Pseudomonas aeruginosa [2]: 80 µg/mL; MBC value (μg/ml) against Staphylococcus aureus [3]: 60 µg/mL; MBC Staphylococcus aureus [3]: 60 µg/mL; MBC value (μg/ml) against Pseudomonas aeruginosa [4]: 80 µg/mL; MBC Pseudomonas aeruginosa [4]: 80 µg/mL; MBC CRPA [5]: 70 µg/mL

Q: With KTMMQSGGTFGKFMAIGMGIR [KU-5878-T69K] as the sequence, how does the “MBC value (μg/ml) against methicillin-resistant Staphylococcus aureus” value [1] read?
A: Its value is 150 µg/mL.

Q: And the MBC MRSA [1]?
A: The MBC MRSA was 150 µg/mL.

Q: And the “MBC value (μg/ml) against multidrug-resistant Pseudomonas aeruginosa” value [2]?
A: Its value is 150 µg/mL.

Q: And the “MBC value (μg/ml) against Staphylococcus aureus” value [3]?
A: The value was 130 µg/mL.

Q: What about the MBC Staphylococcus aureus [3] of the same sequence?
A: Its MBC Staphylococcus aureus is 130 µg/mL.

Q: And the “MBC value (μg/ml) against Pseudomonas aeruginosa” value [4]?
A: The value was 140 µg/mL.

Q: And the MBC Pseudomonas aeruginosa [4]?
A: Its MBC Pseudomonas aeruginosa is 140 µg/mL.

Q: What about the MBC CRPA [5] of the same sequence?
A: The MBC CRPA was 150 µg/mL.

Q: Which MBC MRSA [1] does the source give for KTMMQSGGTFGTFMAIGMGKR [KU-5878-I77K] here?
A: Its MBC MRSA is greater than 300 µg/mL.

Q: What about the “MBC value (μg/ml) against Staphylococcus aureus” value [3] of the same sequence?
A: The value was greater than 300 µg/mL.

Q: What about the MBC Staphylococcus aureus [3] of the same sequence?
A: The MBC Staphylococcus aureus was greater than 300 µg/mL.

Q: And the “MBC value (μg/ml) against Pseudomonas aeruginosa” value [4]?
A: Its value is greater than 300 µg/mL.

Q: And the MBC Pseudomonas aeruginosa [4]?
A: The MBC Pseudomonas aeruginosa was greater than 300 µg/mL.

Q: What about the MBC CRPA [5] of the same sequence?
A: Its MBC CRPA is greater than 300 µg/mL.
